# In PubChem BioAssay AID248 (DTP/NCI, 2004):
# Several values for one entry are separate records, joined by “and”; a condition that tells them apart may be missing. Equal values may be shown once. Inconclusive results and toxic doses are left out.
# Test system: L1210 leukemia ip in BDF1 mice, survival T/C
# Assay: NCI In Vivo Anticancer Drug Screen. Data for tumor model L1210 Leukemia (intraperitoneal) in B6D2F1 (BDF1) mice
# Details: endpoint: mean survival time, higher = longer survival
# How it was run: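 Survival endpoint. Drug-treated group vs vehicle group, expressed as T divided by C. Tumor passaged by transplantation.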
# [1] = dose: 100.0 mg/kg/injection, schedule: Q01DX001 (ip), vehicle: saline
# [2] = dose: 100.0 mg/kg/injection, schedule: Q01DX009 (ip), vehicle: saline with Tween-80
# [3] = dose: 100.0 mg/kg/injection, schedule: Q04DX003 (ip), vehicle: saline with Tween-80
# [4] = dose: 200.0 mg/kg/injection, schedule: Q01DX001 (ip), vehicle: saline
# [5] = dose: 200.0 mg/kg/injection, schedule: Q04DX003 (ip), vehicle: saline with Tween-80
# [6] = dose: 100.0 mg/kg/injection, schedule: Q04DX002 (ip), vehicle: saline with Tween-80
# [7] = dose: 200.0 mg/kg/injection, schedule: Q01DX009 (ip), vehicle: saline with Tween-80
# [8] = dose: 200.0 mg/kg/injection, schedule: Q04DX002 (ip), vehicle: saline with Tween-80
# [9] = dose: 400.0 mg/kg/injection, schedule: Q01DX009 (ip), vehicle: saline with Tween-80
# [10] = dose: 400.0 mg/kg/injection, schedule: Q04DX002 (ip), vehicle: saline with Tween-80
# [11] = dose: 400.0 mg/kg/injection, schedule: Q04DX003 (ip), vehicle: saline with Tween-80
# [12] = dose: 100.0 mg/kg/injection, schedule: Q04DX003 (ip), vehicle: Klucel (hydroxypropylcellulose) (HPC)
# [13] = dose: 200.0 mg/kg/injection, schedule: Q04DX003 (ip), vehicle: Klucel (hydroxypropylcellulose) (HPC)
# [14] = dose: 400.0 mg/kg/injection, schedule: Q04DX003 (ip), vehicle: Klucel (hydroxypropylcellulose) (HPC)
smiles,measurement,setting,value
CN(C)CCCN1c2ccccc2C(C)(C)c2ccccc21,T/C,"dose: 50.0 mg/kg/injection, schedule: Q01DX001 (ip), vehicle: saline",96 % of control
same,T/C,"dose: 50.0 mg/kg/injection, schedule: Q01DX009 (ip), vehicle: saline with Tween-80",104 % of control
same,T/C,"dose: 50.0 mg/kg/injection, schedule: Q01DX009 (ip), vehicle: saline",106 % of control
same,T/C,[1],96 % of control
same,T/C,[2],116 % of control
same,T/C,"dose: 100.0 mg/kg/injection, schedule: Q01DX009 (ip), vehicle: saline",118 % of control
same,T/C,[3],107 % of control
same,T/C,[4],104 % of control
same,T/C,[5],102 % of control
CC(C)(C)C(=O)Nc1ccc(Cl)cc1C(=O)c1ccccc1,T/C,[2],92 % of control and 110 % of control
same,T/C,[6],93 % of control and 98 % of control
same,T/C,[7],96 % of control and 100 % of control
same,T/C,[8],93 % of control and 107 % of control
same,T/C,[9],92 % of control and 95 % of control
same,T/C,[10],107 % of control and 87 % of control
O=C(O)c1ccccc1/C=C/c1ccccc1,T/C,[2],96 % of control
same,T/C,[3],104 % of control
same,T/C,[7],100 % of control
same,T/C,[5],101 % of control
same,T/C,[9],96 % of control
same,T/C,[11],101 % of control
Fc1c(F)c(F)[c]([Hg][c]2c(F)c(F)c(F)c(F)c2F)c(F)c1F,T/C,"dose: 3.13 mg/kg/injection, schedule: Q04DX002 (ip), vehicle: saline with Tween-80",107 % of control
same,T/C,"dose: 6.25 mg/kg/injection, schedule: Q04DX002 (ip), vehicle: saline with Tween-80",93 % of control
same,T/C,"dose: 12.5 mg/kg/injection, schedule: Q04DX002 (ip), vehicle: saline with Tween-80",87 % of control
same,T/C,"dose: 25.0 mg/kg/injection, schedule: Q04DX002 (ip), vehicle: saline with Tween-80",97 % of control
c1ccc2cc(C3OCC4(CC4)CO3)ccc2c1,T/C,"dose: 50.0 mg/kg/injection, schedule: Q01DX001 (ip), vehicle: Klucel (hydroxypropylcellulose) (HPC)",109 % of control
same,T/C,"dose: 100.0 mg/kg/injection, schedule: Q01DX001 (ip), vehicle: Klucel (hydroxypropylcellulose) (HPC)",102 % of control
same,T/C,"dose: 200.0 mg/kg/injection, schedule: Q01DX001 (ip), vehicle: Klucel (hydroxypropylcellulose) (HPC)",100 % of control
O=P(Oc1ccccc1)(Oc1ccccc1)c1ccccc1,T/C,[12],95 % of control
same,T/C,[13],98 % of control
same,T/C,[14],98 % of control
CN(C)CCOC(=O)c1ccccc1C=O,T/C,"dose: 100.0 mg/kg/injection, schedule: Q04DX002 (ip), vehicle: Klucel (hydroxypropylcellulose) (HPC)",105 % of control
same,T/C,"dose: 200.0 mg/kg/injection, schedule: Q04DX002 (ip), vehicle: Klucel (hydroxypropylcellulose) (HPC)",98 % of control
same,T/C,"dose: 400.0 mg/kg/injection, schedule: Q04DX002 (ip), vehicle: Klucel (hydroxypropylcellulose) (HPC)",102 % of control
CC1C=CC2CC(O)C12 (configuration not stated),T/C,[2],111 % of control
same,T/C,[3],102 % of control
same,T/C,[7],93 % of control
same,T/C,[5],98 % of control
same,T/C,[9],99 % of control
same,T/C,[11],98 % of control
CC1C(Cl)(Cl)C1(C)/C=C/C1C(C)(C)C1(Cl)Cl (configuration not stated),T/C,"dose: 100.0 mg/kg/injection, schedule: Q01DX001 (ip), vehicle: other",260 % of control
same,T/C,[1],106 % of control
same,T/C,"dose: 178.0 mg/kg/injection, schedule: Q01DX001 (ip), vehicle: saline",101 % of control
same,T/C,"dose: 200.0 mg/kg/injection, schedule: Q01DX001 (ip), vehicle: other",117 % of control
same,T/C,[4],108 % of control
same,T/C,"dose: 267.0 mg/kg/injection, schedule: Q01DX001 (ip), vehicle: saline",97 % of control
same,T/C,"dose: 400.0 mg/kg/injection, schedule: Q01DX001 (ip), vehicle: other",202 % of control
same,T/C,"dose: 400.0 mg/kg/injection, schedule: Q01DX001 (ip), vehicle: saline",95 % of control and 97 % of control
same,T/C,"dose: 600.0 mg/kg/injection, schedule: Q01DX001 (ip), vehicle: saline",88 % of control
CCCN(CCC)C(=S)[S-].CCCN(CCC)C(=S)[S-].[Zn],T/C,"dose: 100.0 mg/kg/injection, schedule: Q04DX003 (ip), vehicle: saline sonified",100 % of control
same,T/C,"dose: 200.0 mg/kg/injection, schedule: Q04DX003 (ip), vehicle: saline sonified",91 % of control
same,T/C,"dose: 400.0 mg/kg/injection, schedule: Q04DX003 (ip), vehicle: saline sonified",86 % of control
Cc1cc([N+](=O)[O-])c(Nc2cccc(O)c2)c([N+](=O)[O-])c1,T/C,"dose: 100.0 mg/kg/injection, schedule: Q01DX009 (ip), vehicle: Klucel (hydroxypropylcellulose) (HPC)",108 % of control
same,T/C,[12],101 % of control
same,T/C,"dose: 200.0 mg/kg/injection, schedule: Q01DX009 (ip), vehicle: Klucel (hydroxypropylcellulose) (HPC)",102 % of control
same,T/C,[13],95 % of control
same,T/C,"dose: 400.0 mg/kg/injection, schedule: Q01DX009 (ip), vehicle: Klucel (hydroxypropylcellulose) (HPC)",116 % of control
same,T/C,[14],101 % of control
O=C1C(NC(=O)C2CCCCC2)=C(N2CC2)C(=O)C(NC(=O)C2CCCCC2)=C1N1CC1,T/C,"dose: 50.0 mg/kg/injection, schedule: Q01DX010 (ip), vehicle: saline",93 % of control and 101 % of control
same,T/C,"dose: 50.0 mg/kg/injection, schedule: Q01DX Z (ip), vehicle: Klucel (hydroxypropylcellulose) (HPC)",105 % of control
same,T/C,"dose: 78.0 mg/kg/injection, schedule: Q01DX Z (ip), vehicle: carboxymethylcellulose (CMC)",115 % of control
same,T/C,"dose: 100.0 mg/kg/injection, schedule: Q01DX010 (ip), vehicle: saline",101 % of control and 104 % of control
same,T/C,"dose: 100.0 mg/kg/injection, schedule: Q01DX Z (ip), vehicle: Klucel (hydroxypropylcellulose) (HPC)",109 % of control
same,T/C,"dose: 117.0 mg/kg/injection, schedule: Q01DX Z (ip), vehicle: carboxymethylcellulose (CMC)",104 % of control
same,T/C,"dose: 175.0 mg/kg/injection, schedule: Q01DX Z (ip), vehicle: carboxymethylcellulose (CMC)",119 % of control
same,T/C,"dose: 200.0 mg/kg/injection, schedule: Q01DX010 (ip), vehicle: saline",98 % of control and 115 % of control
same,T/C,"dose: 263.0 mg/kg/injection, schedule: Q01DX Z (ip), vehicle: carboxymethylcellulose (CMC)",150 % of control
same,T/C,"dose: 400.0 mg/kg/injection, schedule: Q01DX010 (ip), vehicle: saline",98 % of control and 104 % of control
same,T/C,"dose: 400.0 mg/kg/injection, schedule: Q01DX Z (ip), vehicle: Klucel (hydroxypropylcellulose) (HPC)",102 % of control
same,T/C,"dose: 440.0 mg/kg/injection, schedule: Q01DX001 (ip), vehicle: carboxymethylcellulose (CMC)",102 % of control and 119 % of control
same,T/C,"dose: 670.0 mg/kg/injection, schedule: Q01DX001 (ip), vehicle: carboxymethylcellulose (CMC)",103 % of control and 91 % of control
same,T/C,"dose: 1000.0 mg/kg/injection, schedule: Q01DX001 (ip), vehicle: carboxymethylcellulose (CMC)",101 % of control and 103 % of control
CCOC(=O)C1(CCOC(C)=O)CCCCC1=O (configuration not stated),T/C,"dose: 100.0 mg/kg/injection, schedule: Q01DX001 (ip), vehicle: carboxymethylcellulose (CMC)",93 % of control
same,T/C,"dose: 200.0 mg/kg/injection, schedule: Q01DX001 (ip), vehicle: carboxymethylcellulose (CMC)",93 % of control
same,T/C,"dose: 400.0 mg/kg/injection, schedule: Q01DX001 (ip), vehicle: carboxymethylcellulose (CMC)",102 % of control
COc1ccc(C(=O)Nc2cccc(C(F)(F)F)c2)cc1,T/C,"dose: 100.0 mg/kg/injection, schedule: Q01DX001 (ip), vehicle: saline with Tween-80",97 % of control
same,T/C,[2],100 % of control
same,T/C,[6],100 % of control and 105 % of control
same,T/C,"dose: 200.0 mg/kg/injection, schedule: Q01DX001 (ip), vehicle: saline with Tween-80",100 % of control
same,T/C,[7],121 % of control
same,T/C,[8],100 % of control and 108 % of control
same,T/C,"dose: 400.0 mg/kg/injection, schedule: Q01DX001 (ip), vehicle: saline with Tween-80",98 % of control
same,T/C,[9],118 % of control
same,T/C,[10],107 % of control and 90 % of control
O=C(O)CNC(=O)c1ccc(C(=O)NCC(=O)O)cc1,T/C,"dose: 100.0 mg/kg/injection, schedule: Q04DX003 (ip), vehicle: saline",106 % of control
same,T/C,"dose: 200.0 mg/kg/injection, schedule: Q04DX003 (ip), vehicle: saline",105 % of control
same,T/C,"dose: 400.0 mg/kg/injection, schedule: Q04DX003 (ip), vehicle: saline",97 % of control
